Like-named read-outs stand apart in the source and are kept apart here.
What was measured:
[1] = system: locomotor activity in mice; test: Locomotor activity in mice, open field (Digiscan activity monitor); assay type: in vivo, mouse
[2] = target: T1, rat A1 cortical receptors (Rattus norvegicus, UniProt P25099); test: Radioligand binding, [3H]N6-phenylisopropyladenosine ([3H]PIA), rat cortical A1 receptors; details: for Ki: vs [3H]PIA (1 nM), read-out: Ki (A1); for inhibition at 10 µM: 1.5 h, at 10^-5, vs [3H]PIA, read-out: Percent displacement of specific binding (A1)
T1 construct: Rat cerebral cortical membranes and striatal membranes were prepared; from tissue; host or cells: rat cerebral cortex membranes
T1 sequence (P25099 1-326): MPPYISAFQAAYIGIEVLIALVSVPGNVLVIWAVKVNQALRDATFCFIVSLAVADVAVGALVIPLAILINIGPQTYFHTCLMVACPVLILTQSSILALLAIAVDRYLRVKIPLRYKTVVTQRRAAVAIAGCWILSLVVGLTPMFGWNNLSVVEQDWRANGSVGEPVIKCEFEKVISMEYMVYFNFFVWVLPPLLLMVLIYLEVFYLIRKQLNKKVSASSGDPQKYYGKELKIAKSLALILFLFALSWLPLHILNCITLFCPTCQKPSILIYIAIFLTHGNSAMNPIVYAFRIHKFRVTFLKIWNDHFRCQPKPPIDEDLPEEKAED

[3] = target: rat striatal A2a receptors (Rattus norvegicus, UniProt P30543); test: Radioligand binding, [3H]CGS 21680, rat striatal A2a receptors; parameters: Rat cerebral cortical membranes and striatal membranes were prepared; from tissue; host or cells: rat striatal membranes
Chain of rat striatal A2a receptors (P30543 whole entry): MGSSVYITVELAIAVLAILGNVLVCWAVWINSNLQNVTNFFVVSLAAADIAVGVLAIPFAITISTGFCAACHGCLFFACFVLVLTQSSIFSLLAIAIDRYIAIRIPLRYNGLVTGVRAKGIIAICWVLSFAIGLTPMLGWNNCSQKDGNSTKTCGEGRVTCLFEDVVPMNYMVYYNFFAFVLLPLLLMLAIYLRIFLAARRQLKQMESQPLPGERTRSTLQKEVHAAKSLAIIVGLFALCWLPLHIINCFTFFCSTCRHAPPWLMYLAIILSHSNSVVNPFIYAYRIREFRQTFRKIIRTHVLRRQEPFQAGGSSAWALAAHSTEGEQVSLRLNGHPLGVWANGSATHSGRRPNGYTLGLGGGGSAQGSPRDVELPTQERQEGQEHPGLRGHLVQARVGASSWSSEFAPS

[4] = target: A2 receptors, rat striatum; details: vs [3H]NECA in rat striatum; read-out: Ki (A2a), Shimada et al.; cited from earlier work
[5] = Table I, vs [3H]CGS21680 (5 nM), rat striatal A2 receptors, read-out: Ki (A2a)
[6] = vs [3H]CGS 21680, read-out: Ki value / affinity at A2 receptors
[7] = Table IV, vs [3H]CGS21680 (5 nM), read-out: Ki (A2)
[8] = Table III, vs [3H]CGS21680 (5 nM), read-out: Ki (A2)

| Ki ([2]; Table I, rat A1 receptors) [nM] | Ki [3, 5] [nM] | A1/A2a ratio ([3]; Table I, ratio of Ki values) | SMILES | further results |
| --- | --- | --- | --- | --- |
| – | – | – | OC[C@H]1O[C@@H](n2cnc3c(NC4CCCCC4)ncnc32)[C@H](O)[C@@H]1O [CHA, N^6 -cyclohexyladenosine, reference compound] | total distance traveled ([1]; CHA control 100 μg/kg i.p., n=9): 2090±438 cm/30 min; ED50 ([1]; Mus musculus, ip, CHA, i.p., read-out: ED50 for locomotor depression): 0.1 mg/kg |
| – | – | – | CCCn1c(=O)c2[nH]c(C3CCCC3)nc2n(CCC)c1=O [CPX, 8-cyclopentyl-1,3-dipropyl-xanthine, reference compound] | locomotor stimulation, in words ([1]; mice): minimal depressant effect on locomotor activity |
| 5340 | 1100 | – | COc1ccc(/C=C/c2nc3c([nH]2)c(=O)n(C)c(=O)n3C)cc1OC [Compound 32a, 1,3-Dimethyl-8-(3,4-dimethoxystyryl)xanthine] | A1/A2a ratio [3]: 48 |
| 3040 | 120 ± 36 | 25 | COc1cc(/C=C/c2nc3c([nH]2)c(=O)n(C)c(=O)n3C)cc(OC)c1 [Compound 33a, 1,3-Dimethyl-8-(3,5-dimethoxystyryl)xanthine] | – |
| – | 75.3 ± 29.1 | > 200 | COc1cc(/C=C/c2nc3c(c(=O)n(C)c(=O)n3C)n2C)cc(OC)c1 [Compound 33b, 1,3,7-Trimethyl-8-(3,5-dimethoxystyryl)xanthine] | inhibition at 10 µM [2]: 12.5 ± 6.3% |
| 2330 | 366 ± 77 | 6.4 | Cn1c(=O)c2[nH]c(/C=C/c3cc(F)cc(F)c3)nc2n(C)c1=O [Compound 34a] | – |
| 14800 | 65 ± 9 | 230 | Cn1c(=O)c2c(nc(/C=C/c3cc(F)cc(F)c3)n2C)n(C)c1=O [Compound 34b] | – |
| 8700 | 450 ± 66 | 19 | COc1cc(/C=C/c2nc3c(c(=O)n(C)c(=O)n3C)n2C)cc(OC)c1O [Compound 35] | potency or selectivity in binding, in words ([3]; rat A1 and A2 binding): moderately selective |
| 6330 | 68 ± 22 | 93 | COc1cc(/C=C/c2nc3c(c(=O)n(C)c(=O)n3C)n2C)cc(OC)c1OC(C)=O [Compound 36] | A2-selectivity ([3]; rat brain binding, this study): 93 fold |
| 4120 | 139 ± 7 | 30 | COc1cc(/C=C/c2nc3c(c(=O)n(C)c(=O)n3C)n2C)cc(OC)c1OCc1ccccc1 [Compound 37, 1,3,7-Trimethyl-8-(3,5-dimethoxy-4-benzyloxystyryl) xanthine] | – |
| 6170 | 173 ± 43 | 36 | COc1cc(/C=C/c2nc3c(c(=O)n(C)c(=O)n3C)n2C)cc(OC)c1OCCCCN [Compound 38, 1,3,7-Trimethyl-8-[3,5-dimethoxy-4-[4-aminobutyloxy]styryl]xanthine] | – |
| 11000 | 265 ± 105 | 42 | COc1cc(/C=C/c2nc3c(c(=O)n(C)c(=O)n3C)n2C)cc(OC)c1OCCCCNC(=O)OC(C)(C)C [Compound 39, 1,3,7-Trimethyl-8-[3,5-dimethoxy-4-[4-(tert-butyloxycarbonylamino)butyloxy]styryl]xanthine] | – |
| 6280 | 228 ± 20 | 28 | COc1cc(/C=C/c2nc3c(c(=O)n(C)c(=O)n3C)n2C)cc(OC)c1OC/C=C/CN [Compound 40] | – |
| – | 216 ± 40 | > 50 | COc1cc(/C=C/c2nc3c(c(=O)n(C)c(=O)n3C)n2C)cc(OC)c1OC/C=C/CNC(C)=O [Compound 41] | inhibition at 10 µM [2]: 17 ± 7% |
| – | 353 ± 62 | > 40 | COc1cc(/C=C/c2nc3c(c(=O)n(C)c(=O)n3C)n2C)cc(OC)c1OC/C=C/CNC(=O)OC(C)(C)C [Compound 42] | inhibition at 10 µM [2]: 11 ± 5% |
| – | 1610 | > 5 | COc1ccc(/C=C/c2nc3c([nH]2)c(=O)n(C)c(=O)n3C)c(OC)c1OC [Compound 43a] | inhibition at 10 µM [2]: 26 ± 10% |
| 6920 | 206 ± 81 | 34 | COc1ccc(/C=C/c2nc3c(c(=O)n(C)c(=O)n3C)n2C)c(OC)c1OC [Compound 43b] | – |
| 6290 | 882 ± 239 | 7.1 | CCn1c(/C=C/c2cc(OC)c(OC)c(OC)c2)nc2c1c(=O)n(C)c(=O)n2C [Compound 44c, 7-Ethyl-1,3-trimethyl-8-[3,4,5-trimethoxystyryl]xanthine] | – |
| – | – | – | COc1cc(/C=C/c2nc3c(c(=O)n(C)c(=O)n3C)n2CCO)cc(OC)c1OC [Compound 44d] | inhibition at 10 µM [2]: 26 ± 9%; inhibition at 10 µM ([3]; 1 h, at 10^-5, vs [3H]CGS21680, read-out: Percent displacement of specific binding (A2a)): 22% |

| Ki ([2]; Table I, rat A1 receptors) [nM] | Ki [3, 5] [nM] | A1/A2a ratio ([3]; Table I, ratio of Ki values) | SMILES | further results |
| --- | --- | --- | --- | --- |
| 4040 | 525 ± 220 | 7.7 | C#CCn1c(/C=C/c2cc(OC)c(OC)c(OC)c2)nc2c1c(=O)n(C)c(=O)n2C [Compound 44e] | – |
| 852 ± 277 | 269 ± 7 | 3.2 | CCn1c(=O)c2[nH]c(/C=C/c3cc(OC)c(OC)c(OC)c3)nc2n(CC)c1=O [Compound 45a] | – |
| 272 ± 68 | 56.2 ± 6.8 | 4.8 | CCCn1c(=O)c2c(nc(/C=C/c3cccc([N+](=O)[O-])c3)n2C)n(CCC)c1=O [Compound 48] | – |
| 113 ± 21 | 18.9 ± 5.3 | 6.0 | CCCn1c(=O)c2c(nc(/C=C/c3cccc(N)c3)n2C)n(CCC)c1=O [Compound 49] | Ki [3, 6]: ≤ 50 nM |
| 78 ± 17 | 153 ± 31 | 0.51 | CCCn1c(=O)c2[nH]c(/C=C/c3cccc(F)c3)nc2n(CCC)c1=O [Compound 50a] | – |
| 301 ± 64 | 33 ± 15 | 9.1 | CCCn1c(=O)c2c(nc(/C=C/c3cccc(F)c3)n2C)n(CCC)c1=O [Compound 50b] | Ki [3, 6]: ≤ 50 nM |
| 167 ± 39 | 216 ± 66 | 0.77 | CCCn1c(=O)c2[nH]c(/C=C/c3cccc(Cl)c3)nc2n(CCC)c1=O [Compound 51a] | – |
| 577 ± 42 | – | – | CCCn1c(=O)c2c(nc(/C=C/c3ccc(OC)c(OC)c3)n2C)n(CCC)c1=O [Compound 52b] | Ki [4]: 7.8 nM |
| 632 ± 152 | 210 ± 140 | 3.0 | CCCn1c(=O)c2[nH]c(/C=C/c3cc(OC)cc(OC)c3)nc2n(CCC)c1=O [Compound 53a] | – |
| 146 ± 25 | 346 ± 97 | 0.42 | CCCn1c(=O)c2[nH]c(/C=C/c3cc(F)cc(F)c3)nc2n(CCC)c1=O [Compound 54a] | – |
| 382 ± 40 | 53 ± 15 | 7.2 | CCCn1c(=O)c2c(nc(/C=C/c3cc(F)cc(F)c3)n2C)n(CCC)c1=O [Compound 54b] | Ki [3, 6]: ≤ 50 nM |
| 97 ± 19 | 64 ± 15.6 | 1.5 | CCCn1c(=O)c2[nH]c(/C=C/c3ccc(OC)c(OC)c3OC)nc2n(CCC)c1=O [Compound 55a] | – |
| 143 ± 19 | 323 ± 74 | 0.44 | CCCn1c(=O)c2[nH]c(/C=C/c3cc(OC)c(OC)cc3OC)nc2n(CCC)c1=O [Compound 56a] | – |
| – | – | – | Cn1c(=O)c2c(nc(CCc3cccc(N)c3)n2C)n(C)c1=O [Compound 57, 1,3,7-Trimethyl-8-[2-(3-aminophenyl)ethyl]xanthine] | inhibition at 10 µM [2]: 15%; fold less potent at A2 receptors than 22b [3]: ~ 300 fold; Ki [3, 7]: 18000 nM |
| – | – | – | COc1cccc2cc(-c3nc4c([nH]3)c(=O)n(C)c(=O)n4C)oc12 [Compound 58a] | Ki ([2]; Table IV): 1700 nM; A1/A2 ratio ([3]; Table IV): 0.5; Ki [3, 7]: 3900 nM |
| – | – | – | Cn1c(=O)c2c(ncn2C)n(C)c1=O [caffeine, 1,3,7-trimethylxanthine, reference compound] | Behavioral stimulation ([1]; mouse, in vivo, ip): +++ |
| – | – | – | CCC/C=C/c1nc2c(c(=O)n(C)c(=O)n2C)n1C [n-propyl(Rβ = H)] | Ki ([2]; Table III): 6000 nM; A1/A2 ratio ([3]; Table III): 3.8; Ki [3, 8]: 1600 nM |
| – | – | – | C/C(=C\c1nc2c(c(=O)n(C)c(=O)n2C)n1C)c1ccccc1 [phenyl (Rβ = Me)] | Ki ([2]; Table III): 8680 nM; A1/A2 ratio ([3]; Table III): 6; Ki [3, 8]: 1420 nM |

| SMILES | Ki ([2]; Table I, rat A1 receptors) [nM] | Ki [3, 5] [nM] | A1/A2a ratio ([3]; Table I, ratio of Ki values) | further results |
| --- | --- | --- | --- | --- |
| COc1ccc(/C=C/c2nc3c(c(=O)n(C)c(=O)n3C)n2C)cc1OC [Compound 32b, 1,3,7-Trimethyl-8-(3,4-dimethoxystyryl)xanthine] | 13800 | 197 ± 33 | – | A1/A2a ratio ([3]; rat, brain membranes): 70 |
| CCCn1c(=O)c2c(nc(/C=C/c3ccc(OC)c(OC)c3OC)n2C)n(CCC)c1=O [Compound 55b] | 379 ± 128 | 68.5 ± 12.6 | 5.5 | – |
| CCCn1c(=O)c2c(nc(/C=C/c3cc(OC)c(OC)cc3OC)n2C)n(CCC)c1=O [Compound 56b] | 689 ± 239 | 327 ± 52 | – | A1/A2a ratio ([3]; rat, brain membranes): 2.1 |
